In US20160362418A1, “CARBOXAMIDE-SUBSTITUTED XANTHENE DYES” (priority 2015, published 2016) one finds Abs and Em data, which are given here for 2 molecules.

The data set in a line: Spectral properties of fluorescent dyes (Abs/Em). Format: physicochemical. Particulars: for Abs: absorbance maximum, first number of Abs/Em; for Em: emission maximum, second number of Abs/Em. The source says: The spectral properties of dyes can be tuned by modifying the rhodamine core of dyes.

Molecule `CC(=O)O.CN(CCS(=O)(=O)O)C(=O)c1ccccc1-c1c2ccc(=N)cc-2oc2cc(N)ccc12` [Compound 1] yielded an Abs of 518 nm and an Em of 539 nm.
On the same counts, the results for `CC(=O)O.CN(CCS(=O)(=O)[O-])C(=O)c1ccccc1C1=c2cc3c(cc2Oc2cc4c(cc21)C(CS(=O)(=O)O)=CC(C)(C)N4C)=[N+](C)C(C)(C)C=C3CS(=O)(=O)O` [Compound 6] are 601 nm and 623 nm.
